In US20220204512A1, “SUBSTITUTED FUSED BICYCLIC DERIVATIVE, PREPARATION METHOD THEREFOR, AND APPLICATION THEREOF IN MEDICINES” (Jiangsu Hengrui Medicine Co., Ltd., priority 2019, published 2022):

How the values were obtained:
ERK1 = target: T1, ERK1 (Homo sapiens, UniProt P27361); experiment: ERK1 enzyme activity test (ADP-Glo Kinase Assay); type: biochemical; conditions: ADP-Glo chemiluminescence
T1 construct: purchased R&D 1879-KS-010
Protocol: (§1) The purpose of this experiment is to detect the inhibitory ability of the compounds of the present disclosure on the ERK1 enzyme activity and to evaluate the in vitro activity of the compounds based on the IC50. The ADP-Glo™ Kinase Assay Kit was used in this experiment. The substrate was phosphorylated under the action of the enzyme and ADP was produced at the same time. The ADP-Glo reagent was added to remove the unreacted ATP in the reaction system, and the ADP produced by the reaction was detected with kinase detection reagent. In the presence of the compound, the inhibition rate of the compound was calculated by measuring the signal value.
Preparation of Enzyme and substrate: ERK1 (1879-KS-010, R&D) and substrate (AS-61777, anaspec) were prepared to 0.75 ng/p1 and 100 μM respectively in a buffer, and then the enzyme solution and the substrate solution were prepared into a mixed solution at a volume ratio of 2:1 for later use. ATP was diluted to 300 μM with buffer. The compound was dissolved in DMSO (dimethyl sulfoxide, Shanghai Titan Scientific Co., Ltd.) to prepare a stock solution with an initial concentration of 20 mM, and then Bravo was used to prepare the compound. Finally, 3 μL of a mixed solution of enzyme and substrate, and 1 μL of different concentrations of the compound (the initial concentration was 50 μM, 4-fold dilution) were added to each well of the 384-well plate, and the plate was incubated at 30° C. for 10 minutes, and finally 1 μL of 300 μM ATP solution was added to each well, and the plate was incubated at 30° C. for 2 hours. Then 5 μL of ADP-Glo was added, and the plate was incubated at 30° C. for 40 minutes. Then 10 μL of kinase detection buffer was added, and the plate was incubated at 30° C. for 40 minutes. The 384-well plate was taken out and placed in a microplate reader (BMG labtech, PHERAstar FS), and the chemiluminescence was measured by a microplate reader.
(§2) Microsoft Excel, Graphpad Prism 5 was used to process and analyze the data.

ERK2 = target: T2, ERK2 (Homo sapiens, UniProt P28482); experiment: ERK2 enzyme activity test (ADP-Glo Kinase Assay); type: biochemical; conditions: ADP-Glo chemiluminescence
T2 construct: purchased R&D 1879-KS-010
Protocol: as §1, with “the ERK2” for “the ERK1”, “enzyme activity,” for “enzyme activity”
Preparation of enzyme and substrate: ERK2 (1879-KS-010, R&D) and substrate (custom peptide, Gill Biochemical) were prepared to 0.75 ng/ml and 1500 μM in a buffer (40 mM Tris, 20 mM MgCl2, 0.1 mg/ml BSA, 50 μM DTT), and then the enzyme solution and the substrate solution were prepared into a mixed solution at a volume ratio of 2:1 for later use. ATP was diluted to 500 μM with buffer. The compound was dissolved in DMSO (dimethyl sulfoxide, Shanghai Titan Scientific Co., Ltd.) to prepare a stock solution with an initial concentration of 20 mM, and then Bravo was used to prepare the compound. Finally, 3 μL of a mixed solution of enzyme and substrate, and 1 μL substrate of different concentrations of the compound (the initial concentration is 50 μM, 4-fold dilution) were added to each well of the 384-well plate, and the plate was incubated at 30° C. for 10 minutes, and finally 1 μL 500 μM ATP solution was added to each well, and the plate was incubated at 30° C. for 2 hours. Then 5 μL of ADP-Glo was added, and the plate was incubated at 30° C. for 40 minutes. Then 10 μL of kinase detection buffer was added, and the plate was incubated at 30° C. for 40 minutes. The 384-well plate was taken out and placed in a microplate reader (BMG labtech, PHERAstar FS), and the chemiluminescence was measured by a microplate reader.
as §2

Colo205 cells = experiment: In vitro proliferation inhibition test on Colo205 tumor cells (CellTiter-Glo); type: cell-based; conditions: Homo sapiens, COLO 205, 72 h; Colo205 cell proliferation, 3 days of culture, CTG
Protocol: The purpose of this experiment is to test the inhibitory activity of the compounds of the present disclosure on the proliferation of Colo205 cells (CCL-222, ATCC) in vitro. The cells were treated in vitro with different concentrations of the compounds. After 3 days of culture, the cell proliferation was tested with CTG (CellTiter-Glo® Luminescent Cell Viability Assay, Promega, Catalog No. G7573) reagent, and the in vitro activity of the compounds was evaluated according to the ICso value.
In the following, the in vitro proliferation inhibition test method of Colo205 cells is taken as an example to illustrate the method for testing the in vitro proliferation inhibitory activity of the compounds of the present disclosure on tumor cells. This method is also applicable to, but not limited to, the in vitro proliferation inhibitory activity test on other tumor cells.
Colo205 cells were digested, centrifuged and then resuspended. The single cell suspension was mixed well, and the density of viable cells was adjusted to 5.0×10^4 cells/ml with cell culture medium (RPMI1640+2% FBS), and 95 μL/well was added to a 96-well cell culture plate. Only 100 μL medium was added to the peripheral wells of the 96-well plate. The culture plate was incubated in an incubator for 24 hours (37° C., 5% CO2).
The compound was dissolved in DMSO (dimethyl sulfoxide, Shanghai Titan Scientific Co., Ltd.) and prepared as a stock solution with an initial concentration of 20 mM. The initial concentration of the small molecule compound was 2 mM, and then 4-fold diluted into 9 points, and the 10th point was DMSO. Another 96-well plate was taken, and 90 μL of cell culture medium (RPMI1640+2% FBS) was added to each well. Then 10 μL of different concentrations of the test sample was added to each well. The mixture was mixed well, and then 5μL of different concentrations of the test sample was added to the cell culture plate. Each sample has two duplicate holes. The culture plate was incubated in the incubator for 3 days (37° C., 5% CO2). The 96-well cell culture plate was taken out. 50 μL solution of CTG was added to each well, and the plate was incubated for 10 minutes at room temperature. In a microplate reader (BMG labtech, PHERAstar FS), chemiluminescence was measured with the microplate reader.
as §2

[1] = Pharmacokinetics assay in mice; type: in vivo; conditions: female, mouse, po, C57 mice, intragastric, 2 mg/kg, plasma
Protocol: Mice were used as test animals. The drug concentration in plasma at different time points was determined by LC/MS/MS method after administration of the compounds 1-P2, 2-P2, 4-P2, 6-P2, 9-P2, 10-P2 and 11-P2. The pharmacokinetic behavior of the compounds of the present disclosure was studied and evaluated in mice.
Sixty-three C57 mice (female, equally divided into seven groups) were purchased from Shanghai Jiesijie Laboratory Animal Co., LTD. (Certificate No.: SCXK(Shanghai)2013-0006).
A certain amount of the test compound was weighed, dissolved in 5% of DMSO by volume and 5% of tween 80, followed by the additon of 90% of normal saline to prepare a 0.1 mg/mL colorless, clear and transparent solution.
After an overnight fast, C57 mice were intragastrically administered the test compound at an administration dose of 2 mg/kg and an administration volume of 0.2 ml/10 g.
The mice were intragastrically administered the test compounds. 0.1 ml of blood was taken before the administration and at 0.25, 0.5, 1.0, 2.0, 4.0, 6.0, 8.0, 11.0 and 24.0 hours after the administration. The samples were stored in heparinized tubes, and centrifuged for 10 minutes at 3500 rpm to separate the blood plasma. The plasma samples were stored at −20° C.
The content of the test compound in the plasma of mice after intragastrical administration of the test compound at different concentrations was determined: 25 μL of […] plasma at each time point after the administration was taken, followed by the addition of 50 μL of the internal standard camptothecin solution (100ng/mL) and 200 μL of acetonitrile. The resulting solution was vortex-mixed for 5 minutes, and centrifuged for 10 minutes (4000 rpm). 4 μL of the supernatant was taken from the plasma samples for LC/MS/MS analysis.

T1 sequence (P27361 whole entry): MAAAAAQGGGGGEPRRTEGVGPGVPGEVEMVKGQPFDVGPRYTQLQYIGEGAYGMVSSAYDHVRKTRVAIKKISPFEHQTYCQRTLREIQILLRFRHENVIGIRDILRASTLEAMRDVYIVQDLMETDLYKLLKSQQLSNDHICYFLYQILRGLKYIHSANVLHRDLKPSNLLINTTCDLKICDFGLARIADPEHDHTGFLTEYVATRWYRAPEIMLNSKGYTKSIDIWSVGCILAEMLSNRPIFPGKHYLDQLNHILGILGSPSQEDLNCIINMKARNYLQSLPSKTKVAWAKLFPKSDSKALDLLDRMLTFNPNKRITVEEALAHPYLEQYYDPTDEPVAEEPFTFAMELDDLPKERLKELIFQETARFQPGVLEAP
T2 sequence (P28482 2-360 limits assumed): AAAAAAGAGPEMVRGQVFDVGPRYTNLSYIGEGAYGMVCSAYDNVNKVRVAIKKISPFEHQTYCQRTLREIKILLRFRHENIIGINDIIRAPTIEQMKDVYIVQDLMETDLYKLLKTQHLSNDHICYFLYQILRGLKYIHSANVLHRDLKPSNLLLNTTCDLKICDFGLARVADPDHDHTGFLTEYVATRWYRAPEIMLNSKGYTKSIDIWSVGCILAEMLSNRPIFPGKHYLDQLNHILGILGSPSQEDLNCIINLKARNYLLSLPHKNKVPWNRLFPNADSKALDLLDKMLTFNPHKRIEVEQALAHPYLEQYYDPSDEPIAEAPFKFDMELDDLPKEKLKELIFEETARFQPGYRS

| IC50 (ERK1) [nM] | IC50 (ERK2) [nM] | IC50 (Colo205 cells) [nM] | Vd/F ([1]; read-out: Apparent distribution volume Vz/F) [L/kg] | AUC ([1]; read-out: Area under curve AUC) [ng·h/mL] | CL/F ([1]; read-out: Clearance CLz/F) [mL/min/kg] | half-life ([1]; read-out: Half-life T1/2 (converted)) [h] | Cmax ([1]; read-out: Plasma concentration Cmax) [ng/mL] | MRT ([1]; read-out: Residence time MRT) [h] | Compound |
| --- | --- | --- | --- | --- | --- | --- | --- | --- | --- |
| 22 | 3.1 | 38 | – | – | – | – | – | – | COc1cc(F)cc([C@@H](CO)NC(=O)[C@@H](C)N2CCn3cc(-c4nc(NC5CCOCC5)ncc4C)cc3C2=O)c1 [Example 17-P2, (R)-N-((S)-1-(3-Fluoro-5-methoxyphenyl)-2-hydroxyethyl)-2-(7-(5-methyl-2-((tetrahydro-2H-pyran-4-yl)amino)pyrimidin-4-yl)-1-oxo-3,4-dihydropyrrolo[1,2-a]pyrazin-2(1H)-yl)propanamide] |
| – | 6.7 | 67 | – | – | – | – | – | – | Cc1cccc([C@@H](CO)NC(=O)[C@@H](C)N2CCn3cc(-c4ccnc(NC5CCOCC5)n4)cc3C2=O)c1 [Example 19-P2, (R)-N-((S)-2-Hydroxy-1-(m-tolyl)ethyl)-2-(1-oxo-7-(2-((tetrahydro-2H-pyran-4-yl)amino)pyrimidin-4-yl)-3,4-dihydropyrrolo[1,2-a]pyrazin-2(1H)-yl)propanamide] |

Second part, the compound before the results:

| Compound | IC50 (ERK1) [nM] | IC50 (ERK2) [nM] | IC50 (Colo205 cells) [nM] | Vd/F ([1]; read-out: Apparent distribution volume Vz/F) [L/kg] | AUC ([1]; read-out: Area under curve AUC) [ng·h/mL] | CL/F ([1]; read-out: Clearance CLz/F) [mL/min/kg] | half-life ([1]; read-out: Half-life T1/2 (converted)) [h] | Cmax ([1]; read-out: Plasma concentration Cmax) [ng/mL] | MRT ([1]; read-out: Residence time MRT) [h] |
| --- | --- | --- | --- | --- | --- | --- | --- | --- | --- |
| COc1cc(F)cc([C@@H](CO)NC(=O)[C@@H](C)N2CCc3cc(-c4nc(Nc5ccnn5C)ncc4C)cn3C2=O)c1 [Example 1-P2, (R)-N-((S)-1-(3-Fluoro-5-methoxyphenyl)-2-hydroxyethyl)-2-(6-(5-methyl-2-((1-methyl-1H-pyrazol-5-yl)amino)pyrimidin-4-yl)-1-oxo-3,4-dihydropyrrolo[1,2-c]pyrimidin-2(1H)-yl)propanamide] | 7 | 1.5 | 17.4 | 3.75 | 1110 | 29.7 | 1.46 | 501 | 1.84 |
| COc1cc(F)cc([C@@H](CO)NC(=O)[C@@H](C)N2CCn3cc(-c4nc(NC5CCOCC5)ncc4Cl)nc3C2=O)c1 [Example 3-P2, (R)-2-(2-(5-Chloro-2-((tetrahydro-2H-pyran-4-yl)amino)pyrimidin-4-yl)-8-oxo-5,6-dihydroimidazo[1,2-a]pyrazin-7(8H)-yl)-N-((S)-1-(3-fluoro-5-methoxyphenyl)-2-hydroxyethyl)propanamide] | 4.6 | 1.75 | – | – | – | – | – | – | – |
| Cc1cccc([C@@H](CO)NC(=O)[C@@H](C)N2CCn3cc(-c4nc(Nc5ccnn5C)ncc4C)cc3C2=O)c1 [Example 10-P2, (R)-N-((S)-2-Hydroxy-1-(m-tolyl)ethyl)-2-(7-(5-methyl-2-((1-methyl-1H-pyrazol-5-yl)amino)pyrimidin-4-yl)-1-oxo-3,4-dihydropyrrolo[1,2-a]pyrazin-2(1H)-yl)propanamide] | 8.5 | 1.1 | 100 | – | – | – | – | – | – |
| COc1cc(F)cc([C@@H](CO)NC(=O)[C@@H](C)N2CCn3cc(-c4nc(Nc5ccnn5C)ncc4C)cc3C2=O)c1 [Example 12-P2, (R)-N-((S)-1-(3-Fluoro-5-methoxyphenyl)-2-hydroxyethyl)-2-(7-(5-methyl-2-((1-methyl-1H-pyrazol-5-yl)amino)pyrimidin-4-yl)-1-oxo-3,4-dihydropyrrolo[1,2-a]pyrazin-2(1H)-yl)propanamide] | 9.4 | 0.9 | 82 | – | – | – | – | – | – |
| C[C@H](C(=O)N[C@H](CO)c1cccc(Cl)c1)N1CCn2cc(-c3nc(NC4CCOCC4)ncc3Cl)cc2C1=O [Example 13-P2, (R)-2-(7-(5-Chloro-2-((tetrahydro-2H-pyran-4-yl)amino)pyrimidin-4-yl)-1-oxo-3,4-dihydropyrrolo[1,2-a]pyrazin-2(1H)-yl)-N—((S)-1-(3-chlorophenyl)-2-hydroxyethyl)propanamide] | – | 2.8 | 31 | – | – | – | – | – | – |
| C[C@H](C(=O)N[C@H](CO)c1cccc(Cl)c1)N1CCc2cc(-c3nc(NC4CCOCC4)ncc3Cl)cn2C1=O [Example 16-P2, (R)-2-(6-(5-Chloro-2-((tetrahydro-2H-pyran-4-yl)amino)pyrimidin-4-yl)-1-oxo-3,4-dihydropyrrolo[1,2-c]pyrimidin-2(1H)-yl)-N-((S)-1-(3-chlorophenyl)-2-hydroxyethyl)propanamide] | – | 4.2 | 54 | – | – | – | – | – | – |
